Molecular target: soluble human BACE-1 catalytic domain (Homo sapiens (Human), UniProt P56817)
Assay: BACE-1 Ki Assay (BACE-1 HTRF FRET Assay)
Format: biochemical
Conditions: Ki calculated from IC50 using the Cheng-Prusoff equation; QSY7-APPswe-Eu substrate, pH 5.0; read-out: BACE1 Ki
Source text: The following reagents were used in this assay. Na^+-Acetate pH 5.0; 1% Brij-35; Glycerol; Dimethyl Sulfoxide (DMSO); Recombinant human soluble BACE-1 catalytic domain (>95% pure); APP Swedish mutant peptide substrate (QSY7-APP^swe-Eu): QSY7-[…]-Europium-amide.
A homogeneous time-resolved FRET assay can be used to determine IC50 values for inhibitors of the soluble human BACE-1 catalytic domain. This assay monitors the increase of 620 nm fluorescence that resulted from BACE-1 cleavage of an APPswedish APP^swe mutant peptide FRET substrate (QSY7-[…]-Europium-amide). This substrate contains an N-terminal QSY7 moiety that serves as a quencher of the C-terminal Europium fluorophore (620 nm Em). In the absence of enzyme activity, 620 nm fluorescence is low in the assay and increased linearly over 3 hours in the presence of uninhibited BACE-1 enzyme. Inhibition of BACE-1 cleavage of the QSY7-APP^swe-Eu substrate by inhibitors is manifested as a suppression of 620 nm fluorescence.
Reactions are initiated by addition of 10 μl of 600 nM QSY7-APP^swe-Eu substrate (200 nM final) to give a final reaction volume of 30 μl in a 384 well Nunc HTRF plate. The reactions are incubated at 30° C. for 1.5 hours. […] Inhibitor IC50 values are derived from non-linear regression analysis of concentration response curves. Ki values are then calculated from IC50 values using the Cheng-Prusoff equation using a previously determined […] of 8 μM for the QSY7-APP^swe-Eu substrate at BACE-1. The example compounds of the invention were measured in this assay.

soluble human BACE-1 catalytic domain, sequence (P56817 75-416): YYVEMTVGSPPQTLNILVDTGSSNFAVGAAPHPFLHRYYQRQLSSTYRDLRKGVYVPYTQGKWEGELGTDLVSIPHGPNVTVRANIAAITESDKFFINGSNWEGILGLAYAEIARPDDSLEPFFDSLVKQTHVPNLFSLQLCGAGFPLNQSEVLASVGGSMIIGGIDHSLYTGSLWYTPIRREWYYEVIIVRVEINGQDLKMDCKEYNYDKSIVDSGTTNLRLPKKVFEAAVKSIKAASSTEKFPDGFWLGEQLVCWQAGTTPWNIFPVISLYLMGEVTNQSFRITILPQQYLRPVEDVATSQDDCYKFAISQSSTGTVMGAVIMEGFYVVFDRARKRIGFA

Structure (SMILES) | Ki [nM]
CN1C(=N)N[C@@]2(c3cc(NC(=O)c4ccc(F)cn4)ccc3F)CCC[C@H]2S1(=O)=O [Example 1] | 10
CN1C(=N)N[C@@]2(c3cc(NC(=O)c4cnc(OCCF)cn4)ccc3F)CCC[C@H]2S1(=O)=O [Example 2, N-(4-fluoro-3-((4aR,7aR)-3-imino-2-methyl-1,1-dioxidohexahydrocyclopenta[e][1,2,4]thiadiazin-4a(2H)-yl)phenyl)-5-(2-fluoroethoxy)pyrazine-2-carboxamide] | 18
CN1C(=N)N[C@@]2(c3cc(NC(=O)c4ccc(OC(F)F)cn4)ccc3F)CCC[C@H]2S1(=O)=O [Example 3, 5-(difluoromethoxy)-N-(4-fluoro-3-((4aR,7aR)-3-imino-2-methyl-1,1-dioxidohexahydrocyclopenta[e][1,2,4]thiadiazin-4a(2H)-yl)phenyl)picolinamide] | 4
CN1C(=N)N[C@@]2(c3cc(NC(=O)c4ccc(Cl)cn4)ccc3F)CCC[C@H]2S1(=O)=O [Example 4, 5-chloro-N-(4-fluoro-3-((4aR,7aR)-3-imino-2-methyl-1,1-dioxidohexahydrocyclopenta[e][1,2,4]thiadiazin-4a(2H)-yl)phenyl)picolinamide] | 3
CN1C(=N)N[C@@]2(c3cc(NC(=O)c4ccc(C#N)cn4)ccc3F)CCC[C@H]2S1(=O)=O [Example 5, 5-cyano-N-(4-fluoro-3-((4aR,7aR)-3-imino-2-methyl-1,1-dioxidohexahydrocyclopenta[e][1,2,4]thiadiazin-4a(2H)-yl)phenyl)picolinamide] | 4
Cc1cnc(C(=O)Nc2ccc(F)c([C@]34CCC[C@H]3S(=O)(=O)N(C)C(=N)N4)c2)cn1 [Example 6, N-(4-fluoro-3-((4aR,7aR)-3-imino-2-methyl-1,1-dioxidohexahydrocyclopenta[e][1,2,4]thiadiazin-4a(2H)-yl)phenyl)-5-methylpyrazine-2-carboxamide] | 126
Cc1ccc(C(=O)Nc2ccc(F)c([C@]34CCC[C@H]3S(=O)(=O)N(C)C(=N)N4)c2)nc1 [Example 7, N-(4-fluoro-3-((4aR,7aR)-3-imino-2-methyl-1,1-dioxidohexahydrocyclopenta[e][1,2,4]thiadiazin-4a(2H)-yl)phenyl)-5-methylpicolinamide] | 42
CN1C(=N)N[C@@]2(c3cc(NC(=O)c4ncc(Cl)cc4F)ccc3F)CCC[C@H]2S1(=O)=O [Example 8, 5-chloro-3-fluoro-N-(4-fluoro-3-((4aR,7aR)-3-imino-2-methyl-1,1-dioxidohexahydrocyclopenta[e][1,2,4]thiadiazin-4a(2H)-yl)phenyl)picolinamide] | 4
CN1C(=N)N[C@@]2(c3cc(NC(=O)c4ncc(F)cc4F)ccc3F)CCC[C@H]2S1(=O)=O [Example 9, 3,5-difluoro-N-(4-fluoro-3-((4aR,7aR)-3-imino-2-methyl-1,1-dioxidohexahydrocyclopenta[e][1,2,4]thiadiazin-4a(2H)-yl)phenyl)picolinamide] | 22
Cc1cc(F)cnc1C(=O)Nc1ccc(F)c([C@]23CCC[C@H]2S(=O)(=O)N(C)C(=N)N3)c1 [Example 10, 5-fluoro-N-(4-fluoro-3-((4aR,7aR)-3-imino-2-methyl-1,1-dioxidohexahydrocyclopenta[e][1,2,4]thiadiazin-4a(2H)-yl)phenyl)-3-methylpicolinamide] | 10
COc1cnc(C(=O)Nc2ccc(F)c([C@]34CCC[C@H]3S(=O)(=O)N(C)C(=N)N4)c2)c(C)c1 [Example 11, N-(4-fluoro-3-((4aR,7aR)-3-imino-2-methyl-1,1-dioxidohexahydrocyclopenta[e][1,2,4]thiadiazin-4a(2H)-yl)phenyl)-5-methoxy-3-methylpicolinamide] | 16
COc1cnc(C(=O)Nc2ccc(F)c([C@]34CCC[C@H]3S(=O)(=O)N(C)C(=N)N4)c2)c(C)n1 [Example 12, N-(4-fluoro-3-((4aR,7aR)-3-imino-2-methyl-1,1-dioxidohexahydrocyclopenta[e][1,2,4]thiadiazin-4a(2H)-yl)phenyl)-5-methoxy-3-methylpyrazine-2-carboxamide] | 23
CN1C(=N)N[C@@]2(c3cc(NC(=O)c4cnc(C(F)(F)F)cn4)ccc3F)CCC[C@H]2S1(=O)=O [Example 14, N-(4-fluoro-3-((4aR,7aR)-3-imino-2-methyl-1,1-dioxidohexahydrocyclopenta[e][1,2,4]thiadiazin-4a(2H)-yl)phenyl)-5-(trifluoromethyl)pyrazine-2-carboxamide] | 25
COc1ccc(C(=O)Nc2ccc(F)c([C@]34CCC[C@H]3S(=O)(=O)N(C)C(=N)N4)c2)nc1 [Example 15, N-(4-fluoro-3-((4aR,7aR)-3-imino-2-methyl-1,1-dioxidohexahydrocyclopenta[e][1,2,4]thiadiazin-4a(2H)-yl)phenyl)-5-methoxypicolinamide] | 16
CN1C(=N)N[C@@]2(c3cc(NC(=O)c4cnc(OCC(F)(F)F)cn4)ccc3F)CCC[C@H]2S1(=O)=O [Example 16, N-(4-fluoro-3-((4aR,7aR)-3-imino-2-methyl-1,1-dioxidohexahydrocyclopenta[e][1,2,4]thiadiazin-4a(2H)-yl)phenyl)-5-(2,2,2-trifluoroethoxy)pyrazine-2-carboxamide] | 7
COc1cnc(C(=O)Nc2ccc(F)c([C@]34CCC[C@H]3S(=O)(=O)N(C)C(=N)N4)c2)cn1 [Example 17, N-(4-fluoro-3-((4aR,7aR)-3-imino-2-methyl-1,1-dioxidohexahydrocyclopenta[e][1,2,4]thiadiazin-4a(2H)-yl)phenyl)-5-methoxypyrazine-2-carboxamide] | 11
C#CCOc1ccc(C(=O)Nc2ccc(F)c([C@]34CCC[C@H]3S(=O)(=O)N(C)C(=N)N4)c2)nc1 [Example 18, N-(4-fluoro-3-((4aR,7aR)-3-imino-2-methyl-1,1-dioxidohexahydrocyclopenta[e][1,2,4]thiadiazin-4a(2H)-yl)phenyl)-5-(prop-2-yn-1-yloxy)picolinamide] | 3
COc1cnc2c(Nc3ccc(F)c([C@]45CCC[C@H]4S(=O)(=O)N(C)C(=N)N5)c3)nccc2c1 [Example 19] | 31
COc1cnc2c(Nc3ccc(F)c([C@]45CCC[C@H]4S(=O)(=O)N(C)C(=N)N5)c3)nccc2n1 [Example 20, (4aR,7aR)-4a-(2-fluoro-5-(2-methoxypyrido[3,4-b]pyrazin-5-ylamino)phenyl)-3-imino-2-methyloctahydrocyclopenta[e][1,2,4]thiadiazine 1,1-dioxide] | 36
COc1cnc2c(Nc3ccc(F)c([C@]45CCC[C@H]4S(=O)(=O)N(C)C(=N)N5)c3)ccnc2c1 [Example 21] | 206
CN1C(=N)NC2(c3cc(NC(=O)c4ccc(Cl)cn4)ccc3F)CC2S1(=O)=O (stereo not shown) [Example 32, 5-chloro-N-(4-fluoro-3-(4-imino-3-methyl-2,2-dioxido-2-thia-3,5-diazabicyclo[4.1.0]heptan-6-yl)phenyl)picolinamide] | 2520
CN1C(=N)N[C@@]2(c3cc(Oc4ncccc4F)ccc3F)CCC[C@H]2S1(=O)=O [Example 34, (4aR,7aR)-4a-(2-fluoro-5-((3-fluoropyridin-2-yl)oxy)phenyl)-3-imino-2-methyloctahydrocyclopenta[e][1,2,4]thiadiazine 1,1-dioxide] | 89
COCC(=O)Nc1ccc(F)c(C23CCCC2S(=O)(=O)N(C)C(=N)N3)c1 (stereo not shown) [Example 35, N-(4-fluoro-3-(3-imino-2-methyl-1,1-dioxidohexahydrocyclopenta[e][1,2,4]thiadiazin-4a(2H)-yl)phenyl)-2-methoxy acetamide] | 368
CN1C(=N)NC2(c3cc(NC(=O)C(F)F)ccc3F)CCCC2S1(=O)=O (stereo not shown) [Example 36] | 1080

Same assay, conditions: read-out: BACE-1 Inh. @ 10 μM

Structure (SMILES) | inhibition at 10 µM [%]
CN1C(=N)N[C@@]2(c3cc(Br)ccc3F)CCC[C@H]2S1(=O)=O [Example 33, (4aR,7aR)-4a-(5-bromo-2-fluorophenyl)-3-imino-2-methyloctahydrocyclopenta[e][1,2,4]thiadiazine 1,1-dioxide] | 18
CN1C(=N)NC2(c3ccccc3F)CCCC2S1(=O)=O (stereo not shown) [Example 37, 4a-(2-fluorophenyl)-3-imino-2-methyloctahydrocyclopenta[e][1,2,4]thiadiazine 1,1-dioxide] | 43

Molecular target: purified human autoBACE-2 (Homo sapiens (Human), UniProt Q9Y5Z0)
Sequence (Q9Y5Z0 63-473 limits assumed): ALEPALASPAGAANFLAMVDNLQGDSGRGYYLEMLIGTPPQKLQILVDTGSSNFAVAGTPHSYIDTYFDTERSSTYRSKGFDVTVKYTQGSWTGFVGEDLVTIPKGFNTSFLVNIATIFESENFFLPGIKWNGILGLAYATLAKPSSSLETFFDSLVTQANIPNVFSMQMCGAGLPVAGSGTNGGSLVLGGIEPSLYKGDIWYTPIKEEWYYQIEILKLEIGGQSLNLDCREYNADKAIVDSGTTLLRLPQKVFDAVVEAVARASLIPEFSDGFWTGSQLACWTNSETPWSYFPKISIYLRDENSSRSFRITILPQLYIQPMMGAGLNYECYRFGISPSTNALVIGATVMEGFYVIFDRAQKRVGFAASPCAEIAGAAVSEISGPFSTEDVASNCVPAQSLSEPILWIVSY
Assay: BACE-2 Assay (BACE-HTRF assay)
Conditions: not given

Structure (SMILES) | Ki [nM]
CN1C(=N)N[C@@]2(c3cc(Oc4ncccc4F)ccc3F)CCC[C@H]2S1(=O)=O [Example 34, (4aR,7aR)-4a-(2-fluoro-5-((3-fluoropyridin-2-yl)oxy)phenyl)-3-imino-2-methyloctahydrocyclopenta[e][1,2,4]thiadiazine 1,1-dioxide] | 75

Same assay, conditions: read-out: BACE-2 Inh. @ 10 μM

Structure (SMILES) | inhibition at 10 µM [%]
CN1C(=N)N[C@@]2(c3cc(Br)ccc3F)CCC[C@H]2S1(=O)=O [Example 33, (4aR,7aR)-4a-(5-bromo-2-fluorophenyl)-3-imino-2-methyloctahydrocyclopenta[e][1,2,4]thiadiazine 1,1-dioxide] | 18
